According to ChEMBL document CHEMBL3751826, “Sulfamide derivatives with selective carbonic anhydrase VII inhibitory action” (Bioorg Med Chem, 2016):

Legend:
[1] = target: Carbonic anhydrase 1 (Homo sapiens, UniProt P00915)
Description: Inhibition of recombinant human carbonic anhydrase 1 preincubated for 15 mins by stopped-flow CO2 hydration assay

[2] = target: Carbonic anhydrase 14 (Homo sapiens, UniProt Q9ULX7)
Description: Inhibition of recombinant human carbonic anhydrase 14 preincubated for 15 mins by stopped-flow CO2 hydration assay

[3] = target: Carbonic anhydrase 9 (Homo sapiens, UniProt Q16790)
Description: Inhibition of recombinant human carbonic anhydrase 9 preincubated for 15 mins by stopped-flow CO2 hydration assay

[4] = target: Carbonic anhydrase 2 (Homo sapiens, UniProt P00918)
Description: Inhibition of recombinant human carbonic anhydrase 2 preincubated for 15 mins by stopped-flow CO2 hydration assay

[5] = target: Carbonic anhydrase 12 (Homo sapiens, UniProt O43570)
Description: Inhibition of recombinant human carbonic anhydrase 12 preincubated for 15 mins by stopped-flow CO2 hydration assay

[6] = target: Carbonic anhydrase 7 (Homo sapiens, UniProt P43166)
Sequence of Carbonic anhydrase 7 (P43166 whole entry): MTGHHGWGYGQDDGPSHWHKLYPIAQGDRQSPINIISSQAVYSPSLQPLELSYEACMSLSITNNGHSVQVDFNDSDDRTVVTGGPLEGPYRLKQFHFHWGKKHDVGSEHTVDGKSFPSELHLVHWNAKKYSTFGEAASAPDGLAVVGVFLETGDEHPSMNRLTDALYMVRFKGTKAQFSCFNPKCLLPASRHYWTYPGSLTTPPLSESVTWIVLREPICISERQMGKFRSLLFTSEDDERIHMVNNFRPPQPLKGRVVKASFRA
Description: Inhibition of recombinant human carbonic anhydrase 7 preincubated for 15 mins by stopped-flow CO2 hydration assay

Sequence of Carbonic anhydrase 12 (O43570 whole entry): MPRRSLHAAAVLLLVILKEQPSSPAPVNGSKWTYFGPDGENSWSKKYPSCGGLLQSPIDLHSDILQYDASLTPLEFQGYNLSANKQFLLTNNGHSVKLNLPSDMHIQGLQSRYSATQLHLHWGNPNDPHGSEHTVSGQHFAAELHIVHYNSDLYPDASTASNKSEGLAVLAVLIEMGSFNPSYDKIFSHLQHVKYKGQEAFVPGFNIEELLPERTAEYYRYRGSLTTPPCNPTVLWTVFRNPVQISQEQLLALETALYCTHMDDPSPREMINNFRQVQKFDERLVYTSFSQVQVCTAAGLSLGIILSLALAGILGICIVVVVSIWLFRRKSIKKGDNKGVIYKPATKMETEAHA
Sequence of Carbonic anhydrase 1 (P00915 whole entry): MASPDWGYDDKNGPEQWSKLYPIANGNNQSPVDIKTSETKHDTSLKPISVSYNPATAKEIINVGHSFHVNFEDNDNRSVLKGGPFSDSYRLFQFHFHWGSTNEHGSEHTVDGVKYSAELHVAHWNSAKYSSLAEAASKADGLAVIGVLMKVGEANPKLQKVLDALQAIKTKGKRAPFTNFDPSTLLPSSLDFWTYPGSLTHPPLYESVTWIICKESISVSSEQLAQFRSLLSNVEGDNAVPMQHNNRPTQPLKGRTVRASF
Sequence of Carbonic anhydrase 14 (Q9ULX7 whole entry): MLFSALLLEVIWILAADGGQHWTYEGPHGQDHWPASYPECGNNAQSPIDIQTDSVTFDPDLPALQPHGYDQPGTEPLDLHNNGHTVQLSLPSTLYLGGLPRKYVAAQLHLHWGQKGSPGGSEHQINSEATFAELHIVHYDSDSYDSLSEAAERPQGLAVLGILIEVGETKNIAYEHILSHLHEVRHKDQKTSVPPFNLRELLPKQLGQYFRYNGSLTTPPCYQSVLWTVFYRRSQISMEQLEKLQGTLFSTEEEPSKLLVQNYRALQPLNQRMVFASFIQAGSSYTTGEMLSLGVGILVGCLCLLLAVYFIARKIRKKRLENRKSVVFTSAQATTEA

Row | Ki [1] [nM] | Ki [2] [nM] | Ki [3] [nM] | Ki [4] [nM] | Ki [5] [nM] | Ki [6] [nM] | Compound
1 | > 10000 | 8 | 30.5 | 4960 | 60.7 | 0.43 | COC(=O)CCNS(=O)(=O)NC12CC3CC(CC(C3)C1)C2
2 | > 10000 | 7.4 | 25.7 | > 10000 | 0.74 | 0.24 | COC(=O)[C@@H](NS(=O)(=O)NCc1ccc(F)cc1)C(C)C
3 | > 10000 | 6.3 | 31.8 | > 10000 | 4.7 | 0.27 | COC(=O)CCNS(=O)(=O)NCC(C)C
4 | > 10000 | 22.7 | 29.3 | 8880 | 74.4 | 0.45 | COC(=O)CCNS(=O)(=O)NCc1ccc(F)cc1
5 | > 10000 | 6.1 | 96.7 | 7680 | 5 | 0.3 | CCCCCCNS(=O)(=O)NCCC(=O)OC
6 | > 10000 | 7.7 | 225 | 8530 | 6.8 | 0.37 | COC(=O)[C@H](Cc1ccccc1)NS(=O)(=O)NCC(C)C
7 | > 10000 | 7.5 | 117 | > 10000 | 5.2 | 0.31 | COC(=O)CCNS(=O)(=O)NC(C)c1ccccc1 (stereo unspecified)

Row | Compound | Ki [1] [nM] | Ki [2] [nM] | Ki [3] [nM] | Ki [4] [nM] | Ki [5] [nM] | Ki [6] [nM]
8 | COC(=O)CCNS(=O)(=O)NCCc1ccccc1 | > 10000 | 7.3 | 26.5 | > 10000 | 64.2 | 2.2
9 | COC(=O)[C@H](Cc1ccccc1)NS(=O)(=O)NCc1ccc(F)cc1 | > 10000 | 6.5 | 28.1 | > 10000 | 0.66 | 0.28
10 | COC(=O)[C@@H](NS(=O)(=O)NCC(C)C)C(C)C | > 10000 | 7.8 | 191 | > 10000 | 33.7 | 0.39
11 | O=S(=O)([O-])NC1CCCCC1.[Na+] [SODIUM CYCLAMATE] | > 10000 | 6.6 | 81.3 | > 10000 | 3.8 | 0.24
